Several values for one entry are separate records, joined by “and”; a condition that tells them apart may be missing. Equal values may be shown once.
Assay: Tissue distribution of radioactivity in mice
Assay type: in vivo, mouse
Settings: mean ± SD n = 4
Description: [^11C]MMP (8.1 MBq/17 pmol) was injected intravenously into 8-week-old male ddY mice (37.8–42.4 g). The tracer-injected mice were housed individually in filter-paper-lined animal-rearing cages until the time of euthanasia. Mice were euthanized by cervical dislocation at 1, 5, 15, 30, 60, and 90 min after injection (n = 4 each). Blood was collected by heart puncture, and the tissues were harvested. Radioactivity excreted into urine was recovered from the cage floor and by cystocentesis from the urinary bladder. The samples were measured for ^11C radioactivity with an auto-gamma counter (Hidex-AMG, Turku, Finland) and weighed. Tissue uptake of ^11C was expressed as the percentage of injected dose per organ (%ID/organ) or the percentage of injected dose per gram of tissue (%ID/g). The tissue distribution data were extrapolated to an adult male phantom using the %kg/g method (Blau [1975]). The radiation absorbed dose and effective dose for human adults were estimated using OLINDA/EXM software (Vanderbilt University, Nashville, TN) (Stabin et al. [2005]). Effective dose was estimated using the risk-weighting factor of ICRP Publication 103 (ICRP [2007]).

## CC(C)NC(C)Cc1ccc([11CH3])cc1 (centres unmarked) [[^11C]MMP, N-isopropyl-4-[^11C]methylamphetamine]
1 min after i.v. injection
  Injected dose/g tissue (%), Blood: 1.40 ± 0.24 %ID/g
  Injected dose/g tissue (%), Bone: 2.21 ± 0.54 %ID/g
  Injected dose/g tissue (%), Brain: 5.75 ± 0.42 %ID/g
  Injected dose/g tissue (%), Heart: 8.23 ± 1.30 %ID/g
  Injected dose/g tissue (%), Kidney: 12.93 ± 7.10 %ID/g
  Injected dose/g tissue (%), Large intestine: 1.92 ± 0.95 %ID/g
  Injected dose/g tissue (%), Liver: 1.56 ± 0.87 %ID/g
  Injected dose/g tissue (%), Lung: 28 %ID/g and 27.53 ± 4.66 %ID/g
  Injected dose/g tissue (%), Muscle: 1.77 ± 0.86 %ID/g
  Injected dose/g tissue (%), Pancreas: 3.96 ± 1.02 %ID/g
  Injected dose/g tissue (%), Small intestine: 1.49 ± 0.84 %ID/g
  Injected dose/g tissue (%), Spleen: 1.46 ± 0.42 %ID/g
  Injected dose/g tissue (%), Stomach: 2.06 ± 1.30 %ID/g
  Injected dose/g tissue (%), Testis: 0.96 ± 0.24 %ID/g
  Injected dose/organ (%), Bladder: 0.07 ± 0.05 %ID/organ
  Injected dose/organ (%), Bladder + urine: 0.07 ± 0.05 %ID/organ
  Injected dose/organ (%), Brain: 2.28 ± 0.25 %ID/organ
  Injected dose/organ (%), Heart: 1.56 ± 0.27 %ID/organ
  Injected dose/organ (%), Kidney: 7.4 %ID/organ and 7.44 ± 4.00 %ID/organ
  Injected dose/organ (%), Large intestine: 2.47 ± 1.19 %ID/organ
  Injected dose/organ (%), Liver: 2.63 ± 1.23 %ID/organ
  Injected dose/organ (%), Lung: 5.54 ± 0.95 %ID/organ
  Injected dose/organ (%), Pancreas: 0.76 ± 0.23 %ID/organ
  Injected dose/organ (%), Small intestine: 2.74 ± 1.46 %ID/organ
  Injected dose/organ (%), Spleen: 0.17 ± 0.07 %ID/organ
  Injected dose/organ (%), Stomach: 1.59 ± 1.06 %ID/organ
  Injected dose/organ (%), Testis: 0.24 ± 0.03 %ID/organ
  Injected dose/organ (%), Urine: 0.00 ± 0.00 %ID/organ
5 min after i.v. injection
  Injected dose/g tissue (%), Blood: 1.10 ± 0.14 %ID/g
  Injected dose/g tissue (%), Bone: 2.20 ± 0.30 %ID/g
  Injected dose/g tissue (%), Brain: 6.87 ± 0.62 %ID/g
  Injected dose/g tissue (%), Heart: 3.53 ± 0.21 %ID/g
  Injected dose/g tissue (%), Kidney: 16.26 ± 1.85 %ID/g
  Injected dose/g tissue (%), Large intestine: 2.36 ± 0.41 %ID/g
  Injected dose/g tissue (%), Liver: 4.30 ± 0.84 %ID/g
  Injected dose/g tissue (%), Lung: 21.20 ± 1.81 %ID/g
  Injected dose/g tissue (%), Muscle: 2.14 ± 0.14 %ID/g
  Injected dose/g tissue (%), Pancreas: 8.21 ± 0.70 %ID/g
  Injected dose/g tissue (%), Small intestine: 3.65 ± 0.21 %ID/g
  Injected dose/g tissue (%), Spleen: 5.09 ± 0.59 %ID/g
  Injected dose/g tissue (%), Stomach: 3.24 ± 1.94 %ID/g
  Injected dose/g tissue (%), Testis: 1.26 ± 0.25 %ID/g
  Injected dose/organ (%), Bladder: 0.09 ± 0.03 %ID/organ
  Injected dose/organ (%), Bladder + urine: 3.51 ± 1.80 %ID/organ
  Injected dose/organ (%), Brain: 2.68 ± 0.33 %ID/organ
  Injected dose/organ (%), Heart: 0.63 ± 0.05 %ID/organ
  Injected dose/organ (%), Kidney: 9.5 %ID/organ and 9.54 ± 0.98 %ID/organ
  Injected dose/organ (%), Large intestine: 2.7 %ID/organ and 2.68 ± 0.45 %ID/organ
  Injected dose/organ (%), Liver: 9.53 ± 2.41 %ID/organ
  Injected dose/organ (%), Lung: 3.21 ± 0.65 %ID/organ
  Injected dose/organ (%), Pancreas: 1.70 ± 0.23 %ID/organ
  Injected dose/organ (%), Small intestine: 6.8 %ID/organ and 6.77 ± 0.37 %ID/organ
  Injected dose/organ (%), Spleen: 0.57 ± 0.05 %ID/organ
  Injected dose/organ (%), Stomach: 1.88 ± 0.90 %ID/organ
  Injected dose/organ (%), Testis: 0.32 ± 0.06 %ID/organ
  Injected dose/organ (%), Urine: 3.42 ± 1.82 %ID/organ
15 min after i.v. injection
  Injected dose/g tissue (%), Blood: 0.72 ± 0.23 %ID/g
  Injected dose/g tissue (%), Bone: 1.29 ± 0.18 %ID/g
  Injected dose/g tissue (%), Brain: 4.83 ± 0.21 %ID/g
  Injected dose/g tissue (%), Heart: 1.93 ± 0.18 %ID/g
  Injected dose/g tissue (%), Kidney: 11.36 ± 1.39 %ID/g
  Injected dose/g tissue (%), Large intestine: 1.59 ± 0.62 %ID/g
  Injected dose/g tissue (%), Liver: 6.07 ± 1.10 %ID/g
  Injected dose/g tissue (%), Lung: 7.97 ± 0.89 %ID/g
  Injected dose/g tissue (%), Muscle: 1.22 ± 0.10 %ID/g
  Injected dose/g tissue (%), Pancreas: 8.55 ± 1.10 %ID/g
  Injected dose/g tissue (%), Small intestine: 3.29 ± 0.83 %ID/g
  Injected dose/g tissue (%), Spleen: 4.45 ± 0.69 %ID/g
  Injected dose/g tissue (%), Stomach: 4.51 ± 1.35 %ID/g
  Injected dose/g tissue (%), Testis: 1.63 ± 0.16 %ID/g
  Injected dose/organ (%), Bladder: 0.60 ± 0.32 %ID/organ
  Injected dose/organ (%), Bladder + urine: 13.64 ± 2.31 %ID/organ
  Injected dose/organ (%), Brain: 2.12 ± 0.06 %ID/organ
  Injected dose/organ (%), Heart: 0.33 ± 0.02 %ID/organ
  Injected dose/organ (%), Kidney: 7.47 ± 1.09 %ID/organ
  Injected dose/organ (%), Large intestine: 2.13 ± 1.04 %ID/organ
  Injected dose/organ (%), Liver: 15 %ID/organ and 14.98 ± 2.48 %ID/organ
  Injected dose/organ (%), Lung: 1.47 ± 0.10 %ID/organ
  Injected dose/organ (%), Pancreas: 1.74 ± 0.24 %ID/organ
  Injected dose/organ (%), Small intestine: 6.13 ± 1.74 %ID/organ
  Injected dose/organ (%), Spleen: 0.64 ± 0.12 %ID/organ
  Injected dose/organ (%), Stomach: 2.46 ± 0.69 %ID/organ
  Injected dose/organ (%), Testis: 0.45 ± 0.05 %ID/organ
  Injected dose/organ (%), Urine: 13.03 ± 2.51 %ID/organ
30 min after i.v. injection
  Injected dose/g tissue (%), Blood: 0.62 ± 0.21 %ID/g
  Injected dose/g tissue (%), Bone: 0.76 ± 0.26 %ID/g
  Injected dose/g tissue (%), Brain: 2.63 ± 0.22 %ID/g
  Injected dose/g tissue (%), Heart: 1.16 ± 0.22 %ID/g
  Injected dose/g tissue (%), Kidney: 7.08 ± 1.91 %ID/g
  Injected dose/g tissue (%), Large intestine: 1.22 ± 0.63 %ID/g
  Injected dose/g tissue (%), Liver: 5.46 ± 0.97 %ID/g
  Injected dose/g tissue (%), Lung: 3.68 ± 0.50 %ID/g
  Injected dose/g tissue (%), Muscle: 0.78 ± 0.17 %ID/g
  Injected dose/g tissue (%), Pancreas: 4.58 ± 0.52 %ID/g
  Injected dose/g tissue (%), Small intestine: 2.14 ± 0.67 %ID/g
  Injected dose/g tissue (%), Spleen: 2.48 ± 0.45 %ID/g
  Injected dose/g tissue (%), Stomach: 2.69 ± 0.26 %ID/g
  Injected dose/g tissue (%), Testis: 1.69 ± 0.36 %ID/g

From paper PMC11266321 (EJNMMI Radiopharmacy and Chemistry, 2024)
